Experimental data as given in PubChem BioAssay (NCI).
Where “and” joins values, the source holds several entries; their conditions need not be identical. Identical values can stand only once.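 Assay format: 96-well plates, 48-hour exposure. Here, GI50 denotes the concentration required for 50% inhibition of growth. TGI: total growth inhibition.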

What was measured:
Assay in all cases: inhibition of tumour cell growth, NCI panel, 48 h
SW-620 colon = tested on: SW-620 colon
CCRF-CEM leukemia = tested on: CCRF-CEM leukemia
K-562 leukemia = tested on: K-562 leukemia
NCI-H23 lung = tested on: NCI-H23 lung
MALME-3M melanoma = tested on: MALME-3M melanoma
MDA-MB-231 breast = tested on: MDA-MB-231 breast
U251 CNS = tested on: U251 CNS
RXF 393 renal = tested on: RXF 393 renal
SR leukemia = tested on: SR leukemia
SN12C renal = tested on: SN12C renal

`CCCCCC/C=C\CCCCCCCCCC1=C(CN2CCN(C)CC2)C(=O)C=C(OC)C1=O` was tested, and the TGI (SW-620 colon) was 3380 nM, the TGI (CCRF-CEM leukemia) was 1950 nM and the TGI (K-562 leukemia) was 6320 nM. It also gave a TGI (NCI-H23 lung) of 15400 nM, a TGI (MALME-3M melanoma) of 9550 nM and a TGI (MDA-MB-231 breast) of 25900 nM. It also gave a TGI (U251 CNS) of 15000 nM, a TGI (RXF 393 renal) of 6720 nM and a TGI (SR leukemia) of 1810 nM. It also gave a TGI (SN12C renal) of 19700 nM.
Compound `C/C(=C(\c1ccc(OCCN2CCCCCC2)cc1)c1ccc(OC(=O)c2ccccc2)cc1)c1ccc(Cl)cc1` has a GI50 (SW-620 colon) of 4040 nM, a TGI (SW-620 colon) of 9420 nM and a GI50 (CCRF-CEM leukemia) of 4200 nM. For the same compound, the TGI (CCRF-CEM leukemia) was 16400 nM, the GI50 (K-562 leukemia) was 1310 nM and the TGI (K-562 leukemia) was 33300 nM. The GI50 (NCI-H23 lung) was 4730 nM, the TGI (NCI-H23 lung) was 11000 nM and the GI50 (MALME-3M melanoma) was 3600 nM. For the same compound, the TGI (MALME-3M melanoma) was 8720 nM, the GI50 (MDA-MB-231 breast) was 4900 nM and the TGI (MDA-MB-231 breast) was 9960 nM. It also gave a GI50 (U251 CNS) of 3760 nM, a TGI (U251 CNS) of 8080 nM and a GI50 (RXF 393 renal) of 3710 nM. For the same compound, the TGI (RXF 393 renal) was 8180 nM, the GI50 (SR leukemia) was 996 nM and the TGI (SR leukemia) was 3330 nM. For the same compound, the GI50 (SN12C renal) was 4210 nM and the TGI (SN12C renal) was 9530 nM.
In the case of `CC(=O)c1cc(C(=O)c2ccc3c(c2)Sc2ccccc2N3)n2ccccc12`, the GI50 (SW-620 colon) is reported as 3.63 nM and 3.32 nM, the TGI (SW-620 colon) is reported as over 33200 nM and the GI50 (CCRF-CEM leukemia) is reported as 3.3 nM and 3.32 nM. The TGI (CCRF-CEM leukemia) was over 33200 nM, the GI50 (K-562 leukemia) was 3.85 nM and 3.32 nM and the TGI (K-562 leukemia) was over 33200 nM. The GI50 (NCI-H23 lung) was 7.73 nM and 3.32 nM, the TGI (NCI-H23 lung) was over 33200 nM and the GI50 (MALME-3M melanoma) was 4.87 nM. The GI50 (MDA-MB-231 breast) was 6.51 nM and 20.3 nM, the GI50 (U251 CNS) was 4.92 nM and 3.32 nM and the TGI (U251 CNS) was 16400 nM. The GI50 (RXF 393 renal) was 3.32 nM, the TGI (RXF 393 renal) was 20500 nM and the GI50 (SR leukemia) was 4.59 nM and 3.32 nM. It also gave a TGI (SR leukemia) of over 33200 nM and a TGI (SN12C renal) of over 33200 nM.
`CC(=O)C1=C(O)C=C2Oc3c(C(=O)/C=C/c4cc(Cl)cc(Cl)c4)c(O)c(C)c(O)c3[C@]2(C)C1=O` was tested, and the GI50 (SW-620 colon) was 527 nM, the TGI (SW-620 colon) was 2210 nM and the GI50 (CCRF-CEM leukemia) was 498 nM. The TGI (CCRF-CEM leukemia) was 2650 nM, the GI50 (K-562 leukemia) was 497 nM and the TGI (K-562 leukemia) was 15000 nM. For the same compound, the GI50 (NCI-H23 lung) was 500 nM, the TGI (NCI-H23 lung) was 2050 nM and the GI50 (MALME-3M melanoma) was 335 nM. It also gave a TGI (MALME-3M melanoma) of 739 nM, a GI50 (MDA-MB-231 breast) of 541 nM and a TGI (MDA-MB-231 breast) of 1850 nM. It also gave a GI50 (U251 CNS) of 410 nM, a TGI (U251 CNS) of 1060 nM and a GI50 (RXF 393 renal) of 541 nM. It also gave a TGI (RXF 393 renal) of 1620 nM, a GI50 (SR leukemia) of 459 nM and a TGI (SR leukemia) of 4350 nM. For the same compound, the GI50 (SN12C renal) was 534 nM and the TGI (SN12C renal) was 2450 nM.
Work on `Cn1cc(-c2cnn3c(N)c(Br)c(C4CCCNC4)nc23)cn1` (configuration not stated) yielded a GI50 (SW-620 colon) of 15700 nM, a TGI (SW-620 colon) of over 68600 nM and a GI50 (CCRF-CEM leukemia) of 631 nM. For the same compound, the TGI (CCRF-CEM leukemia) was 38900 nM, the GI50 (K-562 leukemia) was 3850 nM and the TGI (K-562 leukemia) was over 100000 nM. For the same compound, the GI50 (NCI-H23 lung) was 546 nM, the TGI (NCI-H23 lung) was over 81600 nM and the GI50 (MALME-3M melanoma) was 6110 nM. It also gave a TGI (MALME-3M melanoma) of 27100 nM, a GI50 (MDA-MB-231 breast) of 5530 nM and a TGI (MDA-MB-231 breast) of 40000 nM. It also gave a GI50 (U251 CNS) of 20200 nM, a TGI (U251 CNS) of over 100000 nM and a GI50 (RXF 393 renal) of 257 nM. It also gave a TGI (RXF 393 renal) of 799 nM, a GI50 (SR leukemia) of 326 nM and a TGI (SR leukemia) of 16900 nM. It also gave a GI50 (SN12C renal) of 3860 nM and a TGI (SN12C renal) of 50600 nM.
`CC(=O)NNc1nc(C)c(C(/C=C/c2ccccc2O)=N/N=C(N)N)s1` was tested, and the TGI (SW-620 colon) was over 100000 nM, the TGI (CCRF-CEM leukemia) was over 100000 nM and the TGI (K-562 leukemia) was over 100000 nM. For the same compound, the TGI (NCI-H23 lung) was over 100000 nM, the TGI (MALME-3M melanoma) was over 100000 nM and the TGI (MDA-MB-231 breast) was over 100000 nM. It also gave a TGI (U251 CNS) of over 100000 nM, a TGI (RXF 393 renal) of over 100000 nM and a TGI (SR leukemia) of over 100000 nM. For the same compound, the TGI (SN12C renal) was over 100000 nM.
Compound `Cc1cc(Nc2cc(N3CCN(C)CC3)nc(/C=C/c3ccccc3)n2)n[nH]1` has a GI50 (SW-620 colon) of 294 nM, a TGI (SW-620 colon) of over 10000 nM and a GI50 (CCRF-CEM leukemia) of 412 nM. It also gave a TGI (CCRF-CEM leukemia) of over 10000 nM, a GI50 (K-562 leukemia) of 644 nM and a TGI (K-562 leukemia) of over 10000 nM. For the same compound, the GI50 (NCI-H23 lung) was 1140 nM, the TGI (NCI-H23 lung) was over 5230 nM and the GI50 (MALME-3M melanoma) was 796 nM. It also gave a TGI (MALME-3M melanoma) of over 4770 nM, a GI50 (MDA-MB-231 breast) of 966 nM and a TGI (MDA-MB-231 breast) of 9950 nM. It also gave a GI50 (U251 CNS) of 883 nM, a TGI (U251 CNS) of over 6760 nM and a GI50 (RXF 393 renal) of 246 nM. For the same compound, the TGI (RXF 393 renal) was 1040 nM, the GI50 (SR leukemia) was 103 nM and the TGI (SR leukemia) was 2190 nM. It also gave a GI50 (SN12C renal) of 620 nM and a TGI (SN12C renal) of over 10000 nM.
